Experimental data taken from US11685746B2, “Heteroaryl compounds for treating Huntington's disease” (PTC THERAPEUTICS, INC., priority 2018, dated 2023).

Test system: Endogenous Huntingtin Protein
Test: Endogenous Huntingtin Protein Assay (MSD plates, MW1 or MAB2166 capture antibody)
Type: cell-based
Conditions: Table 1
Procedure, shortened: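 Sandwich MSD immunoassay: plates were coated overnight at 4° C with MW1 (expanded polyQ) or MAB2166 capture antibody at 1 μg/mL, then blocked with 5% BSA. Samples were bound overnight at 4° C, followed by rabbit mAb #5656S and SULFO-TAG anti-rabbit detection, each at 0.25 μg/mL for 1 h at room temperature. Signal was read by electrochemiluminescence.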

Compound | IC50
C[C@@H]1C[C@@H](Oc2nc3sc(-c4ncc(-c5cn[nH]c5)c5cn[nH]c45)nc3s2)CCN1 [Compound 74, 7-(5-{[(2R,4S)-2-methylpiperidin-4-yl]oxy}[1,3]thiazolo[5,4-d][1,3]thiazol-2-yl)-4-(1H-pyrazol-4-yl)-1H-pyrazolo[3,4-c]pyridine] | ≤ 100 nM
c1cc2c(-c3cn[nH]c3)cnc(-c3nc4sc(N5CCC56CCCNC6)nc4s3)c2[nH]1 (stereo not shown) [Compound 134, 7-[5-(1,6-diazaspiro[3.5]nonan-1-yl)[1,3]thiazolo[5,4-d][1,3]thiazol-2-yl]-4-(1H-pyrazol-4-yl)-1H-pyrrolo[2,3-c]pyridine] | ≤ 100 nM
CC(C)(C)NC1CCN(c2nc3sc(-n4ccc(-c5cn[nH]c5)cc4=O)nc3s2)C1 (stereo not shown) [Compound 151, 1-{5-[3-(tert-butylamino)pyrrolidin-1-yl][1,3]thiazolo[5,4-d][1,3]thiazol-2-yl}-4-(1H-pyrazol-4-yl)pyridin-2(1H)-one] | 100 to 500 nM
CN1CCC(N(C)c2nn3cc(-c4cc(C#N)c5nn(C)cc5c4)nc3s2)CC1 [Compound 31, 2-methyl-5-{2-[methyl(1-methylpiperidin-4-yl)amino]imidazo[2,1-b][1,3,4]thiadiazol-6-yl}-2H-indazole-7-carbonitrile] | 3000 to 9000 nM
[2H]C([2H])([2H])n1cc(-c2ccc(-c3nc4sc(N(C)C5CCN(C)CC5)nc4s3)c(O)c2)cn1 [Compound 58, 2-{5-[methyl(1-methylpiperidin-4-yl)amino][1,3]thiazolo[5,4-d][1,3]thiazol-2-yl}-5-[1-(^2H3)methyl-1H-pyrazol-4-yl]phenol] | ≤ 100 nM
CN1C[C@@H]2CN(c3nc4sc(-c5ccc(-c6cn[nH]c6)cc5O)nc4s3)C[C@@H]2C1 [Compound 211, 2-{5-[(3aR,6aS)-5-methylhexahydropyrrolo[3,4-c]pyrrol-2(1H)-yl][1,3]thiazolo[5,4-d][1,3]thiazol-2-yl}-5-(1H-pyrazol-4-yl)phenol] | 1000 to 3000 nM
CC1CC(N(C)c2nc3sc(-c4ncc(-c5cn[nH]c5)c5[nH]cnc45)nc3s2)CCN1C (stereo not shown) [Compound 115, N-(1,2-dimethylpiperidin-4-yl)-N-methyl-5-[7-(1H-pyrazol-4-yl)-1H-imidazo[4,5-c]pyridin-4-yl][1,3]thiazolo[5,4-d][1,3]thiazol-2-amine] | ≤ 100 nM
CN(c1nc2sc(-c3ncc(-n4cc(F)cn4)cc3O)nc2s1)[C@@H]1C[C@H]2CC[C@@H](C1)N2 [Compound 193, 2-(5-{[(1R,3s,5S)-8-azabicyclo[3.2.1]octan-3-yl](methyl)amino}[1,3]thiazolo[5,4-d][1,3]thiazol-2-yl)-5-(4-fluoro-1H-pyrazol-1-yl)pyridin-3-ol] | ≤ 100 nM
C[C@@H]1C[C@@H](Oc2nc3sc(-c4ncc(-c5cn[nH]c5)c5cc[nH]c45)nc3s2)CCN1 [Compound 76, 7-(5-{[(2R,4S)-2-methylpiperidin-4-yl]oxy}[1,3]thiazolo[5,4-d][1,3]thiazol-2-yl)-4-(1H-pyrazol-4-yl)-1H-pyrrolo[2,3-c]pyridine] | ≤ 100 nM
N-methyl-N-[(2S,4R)-2-methylpiperidin-4-yl]-5-[4-(1H-pyrazol-4-yl)-1H-pyrrolo[2,3-c]pyridin-7-yl][1,3]thiazolo[5,4-d][1,3]thiazol-2-amine [Compound 72] | ≤ 100 nM
CN(c1nc2sc(-n3cnc(-c4cn[nH]c4)cc3=O)nc2s1)[C@@H]1C[C@H]2CC[C@@H](C1)N2 [Compound 172, 3-(5-{[(1R,3s,5S)-8-azabicyclo[3.2.1]octan-3-yl](methyl)amino}[1,3]thiazolo[5,4-d][1,3]thiazol-2-yl)-6-(1H-pyrazol-4-yl)pyrimidin-4(3H)-one] | ≤ 100 nM
CN(c1nc2sc(-c3ncc(-c4cn[nH]c4)cn3)nc2s1)[C@@H]1C[C@H]2CC[C@@H](C1)N2 [Compound 194, N-[(1R,3s,5S)-8-azabicyclo[3.2.1]octan-3-yl]-N-methyl-5-[5-(1H-pyrazol-4-yl)pyrimidin-2-yl][1,3]thiazolo[5,4-d][1,3]thiazol-2-amine] | ≤ 100 nM
CN(c1nc2sc(-n3ccc(-c4cn[nH]c4)cc3=O)nc2s1)[C@H]1CCCNC1 [Compound 169, 1-(5-{methyl[(3S)-piperidin-3-yl]amino}[1,3]thiazolo[5,4-d][1,3]thiazol-2-yl)-4-(1H-pyrazol-4-yl)pyridin-2(1H)-one] | ≤ 100 nM
CC(C)(C)NC1CCN(c2nc3sc(-c4ccc(-c5cn[nH]c5)cc4O)nc3s2)C1 (stereo not shown) [Compound 147, 2-{5-[3-(tert-butylamino)pyrrolidin-1-yl][1,3]thiazolo[5,4-d][1,3]thiazol-2-yl}-5-(1H-pyrazol-4-yl)phenol] | 1000 to 3000 nM
CC1CC(N(C)c2nc3sc(-n4ccc5ccc(O)nc54)nc3s2)CCN1C (stereo not shown) [Compound 157, 1-{5-[(1,2-dimethylpiperidin-4-yl)(methyl)amino][1,3]thiazolo[5,4-d][1,3]thiazol-2-yl]-1H-pyrrolo[2,3-b]pyridin-6-ol] | 100 to 500 nM
CN(c1nc2sc(-c3ncc(-c4ccn(C)c(=O)c4)cc3O)nc2s1)[C@@H]1C[C@H]2CC[C@@H](C1)N2 [Compound 191, 6-(5-{[(1R,3s,5S)-8-azabicyclo[3.2.1]octan-3-yl](methyl)amino}[1,3]thiazolo[5,4-d][1,3]thiazol-2-yl)-5-hydroxy-1′-methyl[3,4′-bipyridin]-2′(1′H)-one] | ≤ 100 nM

Compound | IC50
CCn1cc(-c2cnc(-c3nc4sc(N(C)C5CCNCC5)nc4s3)c(O)c2)cn1 [Compound 52, 5-(1-ethyl-1H-pyrazol-4-yl)-2-{5-[methyl(piperidin-4-yl)amino][1,3]thiazolo[5,4-d][1,3]thiazol-2-yl}pyridin-3-ol] | 1000 to 3000 nM
CN(c1nc2sc(-n3ccc(-n4cc(F)cn4)cc3=O)nc2s1)[C@@H]1C[C@H]2CC[C@@H](C1)N2 [Compound 149, 1-(5-{[(1R,3s,5S)-8-azabicyclo[3.2.1]octan-3-yl](methyl)amino}[1,3]thiazolo[5,4-d][1,3]thiazol-2-yl)-4-(4-fluoro-1H-pyrazol-1-yl)pyridin-2(1H)-one] | ≤ 100 nM
CN(c1nc2sc(-c3ncc(-c4cn[nH]c4)cn3)nc2s1)[C@H]1CCCNC1 [Compound 161, N-methyl-N-[(3S)-piperidin-3-yl]-5-[5-(1H-pyrazol-4-yl)pyrimidin-2-yl][1,3]thiazolo[5,4-d][1,3]thiazol-2-amine] | 100 to 500 nM
C[C@@H]1C[C@@H](N(C)c2nc3sc(-c4ccc(-c5cn[nH]c5)cc4O)nc3s2)C[C@H](C)N1 [Compound 34, 2-(5-{[(2R,4s,6S)-2,6-dimethylpiperidin-4-yl](methyl)amino}[1,3]thiazolo[5,4-d][1,3]thiazol-2-yl)-5-(1H-pyrazol-4-yl)phenol] | ≤ 100 nM
CN(c1nc2sc(-c3ncc(-c4ccc5nncn5c4)cc3O)nc2s1)C1CCNCC1 [Compound 210, 2-{5-[methyl(piperidin-4-yl)amino][1,3]thiazolo[5,4-d][1,3]thiazol-2-yl}-5-([1,2,4]triazolo[4,3-a]pyridin-6-yl)pyridin-3-ol] | 3000 to 9000 nM
CCN(c1nc2sc(-c3ncc(-c4cn[nH]c4)cc3O)nc2s1)C1CCN(C)CC1 [Compound 218, 2-{5-[ethyl(1-methylpiperidin-4-yl)amino][1,3]thiazolo[5,4-d][1,3]thiazol-2-yl}-5-(1H-pyrazol-4-yl)pyridin-3-ol] | ≤ 100 nM
CN(c1nc2sc(-c3ccc(-c4cn[nH]c4F)cc3O)nc2s1)C1CC(C)(C)NC(C)(C)C1 [Compound 43, 5-(5-fluoro-1H-pyrazol-4-yl)-2-{5-[methyl(2,2,6,6-tetramethylpiperidin-4-yl)amino][1,3]thiazolo[5,4-d][1,3]thiazol-2-yl}phenol] | ≤ 100 nM
Cc1cnn(-c2cnc(-c3nc4sc(N(C)C5CCNCC5)nc4s3)c(O)c2)c1 [Compound 63, 5-(4-methylpyrazol-1-yl)-2-[5-[methyl(4-piperidyl)amino]thiazolo[5,4-d]thiazol-2-yl]pyridin-3-ol] | 3000 to 9000 nM
Cc1cc(-c2nc3sc(C4CCNCC4)nc3s2)cc2cn(C)nc12 [Compound 16, 2,7-dimethyl-5-[5-(piperidin-4-yl)[1,3]thiazolo[5,4-d][1,3]thiazol-2-yl]-2H-indazole] | ≤ 100 nM
CN(c1nc2sc(-c3ccc(-c4ccnc(O)c4)cc3O)nc2s1)C1CCNCC1 [Compound 35, 4-(3-hydroxy-4-{5-[methyl(piperidin-4-yl)amino][1,3]thiazolo[5,4-d][1,3]thiazol-2-yl}phenyl)pyridin-2-ol] | 3000 to 9000 nM
CN(c1nc2sc(-n3ccc(-n4cc(F)cn4)cc3=O)nc2s1)[C@H]1C[C@]2(C)CC[C@](C)(C1)N2 [Compound 148, 1-(5-{[(1R,3s,5S)-1,5-dimethyl-8-azabicyclo[3.2.1]octan-3-yl](methyl)amino}[1,3]thiazolo[5,4-d][1,3]thiazol-2-yl)-4-(4-fluoro-1H-pyrazol-1-yl)pyridin-2(1H)-one] | ≤ 100 nM
Cn1cc2cc(-c3cn4nc(C5=CC6CCC(C5)N6)sc4n3)cc(C#N)c2n1 (stereo not shown) [Compound 33, 5-[2-(8-azabicyclo[3.2.1]oct-2-en-3-yl)imidazo[2,1-b][1,3,4]thiadiazol-6-yl]-2-methyl-2H-indazole-7-carbonitrile] | 1000 to 3000 nM
CN(c1nc2sc(-c3ncc(-c4cn[nH]c4)c4cc[nH]c34)nc2s1)[C@H]1C[C@]2(C)CC[C@](C)(C1)N2 [Compound 154, N-[(1R,3s,5S)-1,5-dimethyl-8-azabicyclo[3.2.1]octan-3-yl]-N-methyl-5-[4-(1H-pyrazol-4-yl)-1H-pyrrolo[2,3-c]pyridin-7-yl][1,3]thiazolo[5,4-d][1,3]thiazol-2-amine] | ≤ 100 nM
Oc1cc(-c2cn[nH]c2)cnc1-c1nc2sc(N3CC4(CC5CCC(C4)N5)C3)nc2s1 [Compound 197, 5-(1H-pyrazol-4-yl)-2-[5-(spiro[8-azabicyclo[3.2.1]octane-3,3′-azetidin]-1′-yl)[1,3]thiazolo[5,4-d][1,3]thiazol-2-yl]pyridin-3-ol] | 1000 to 3000 nM
CN(c1nc2sc(-c3ccc(-c4cn[nH]c4)cc3O)nc2s1)[C@H]1CCN[C@@H](CO)C1 [Compound 202, 2-(5-{[(2R,4S)-2-(hydroxymethyl)piperidin-4-yl](methyl)amino}[1,3]thiazolo[5,4-d][1,3]thiazol-2-yl)-5-(1H-pyrazol-4-yl)phenol] | ≤ 100 nM
